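Interpolation was linear, between the two tested concentrations surrounding the appropriate level; five concentrations were tested over 48 hours in 96-well plates. The concentration for full growth arrest is given as TGI.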
Experiments:
Assay in all cases: NCI-60 cell line screen, 48 h
SNB-78 CNS = test system: SNB-78 CNS
DLD-1 colon = test system: DLD-1 colon
HCT-15 colon = test system: HCT-15 colon
SW-620 colon = test system: SW-620 colon
SR leukemia = test system: SR leukemia
K-562 leukemia = test system: K-562 leukemia
RPMI-8226 leukemia = test system: RPMI-8226 leukemia
UO-31 renal = test system: UO-31 renal
IGROV1 ovarian = test system: IGROV1 ovarian
UACC-62 melanoma = test system: UACC-62 melanoma
ACHN renal = test system: ACHN renal
EKVX NSCLC = test system: EKVX NSCLC
U251 CNS = test system: U251 CNS
A549 NSCLC = test system: A549 NSCLC
SNB-75 CNS = test system: SNB-75 CNS
HCC-2998 colon = test system: HCC-2998 colon
SN12C renal = test system: SN12C renal
OVCAR-3 ovarian = test system: OVCAR-3 ovarian
M14 melanoma = test system: M14 melanoma
SK-MEL-2 melanoma = test system: SK-MEL-2 melanoma
TK-10 renal = test system: TK-10 renal
NCI-H460 lung = test system: NCI-H460 lung
RXF-631 renal = test system: RXF-631 renal
NCI-H522 lung = test system: NCI-H522 lung
NCI-H23 lung = test system: NCI-H23 lung
KM20L2 colon = test system: KM20L2 colon
SK-OV-3 ovarian = test system: SK-OV-3 ovarian
SF-539 CNS = test system: SF-539 CNS
RXF 393 renal = test system: RXF 393 renal
SF-295 CNS = test system: SF-295 CNS
HOP-18 NSCLC = test system: HOP-18 NSCLC
M19-MEL melanoma = test system: M19-MEL melanoma
CAKI-1 renal = test system: CAKI-1 renal
MOLT-4 leukemia = test system: MOLT-4 leukemia
LXFL 529 NSCLC = test system: LXFL 529 NSCLC
OVCAR-4 ovarian = test system: OVCAR-4 ovarian
KM12 colon = test system: KM12 colon
SK-MEL-28 melanoma = test system: SK-MEL-28 melanoma
OVCAR-8 ovarian = test system: OVCAR-8 ovarian
786-0 renal = test system: 786-0 renal
SK-MEL-5 melanoma = test system: SK-MEL-5 melanoma
XF 498 CNS = test system: XF 498 CNS
SNB-19 CNS = test system: SNB-19 CNS
DMS 273 small cell lung = test system: DMS 273 small cell lung
NCI-H226 lung = test system: NCI-H226 lung
HT29 colon = test system: HT29 colon
UACC-257 melanoma = test system: UACC-257 melanoma
DMS 114 small cell lung = test system: DMS 114 small cell lung
HCT-116 colon = test system: HCT-116 colon
OVCAR-5 ovarian = test system: OVCAR-5 ovarian
COLO 205 colon = test system: COLO 205 colon
CCRF-CEM leukemia = test system: CCRF-CEM leukemia
LOX IMVI melanoma = test system: LOX IMVI melanoma
MALME-3M melanoma = test system: MALME-3M melanoma
A498 renal = test system: A498 renal
SF-268 CNS = test system: SF-268 CNS
HOP-62 NSCLC = test system: HOP-62 NSCLC
HL-60(TB) leukemia = test system: HL-60(TB) leukemia
HOP-92 NSCLC = test system: HOP-92 NSCLC

CC(C)(C)c1cc(C(O)(C(F)(F)F)C(F)(F)F)c2c(c1)C(C(F)(F)F)(C(F)(F)F)OC(C(C)(C)C)N2 (centres undefined) was tested. Which TGI (SNB-78 CNS) did it give?
Its TGI is 14.2 µM.

What about the TGI (DLD-1 colon) of the same molecule?
Its TGI is 16.5 µM.

What about the TGI (HCT-15 colon) of the same molecule?
The TGI was 11.7 µM.

And the TGI (SW-620 colon)?
The TGI was 13.8 µM.

What about the TGI (SR leukemia) of the same molecule?
Its TGI is 7.2 µM.

What about the TGI (K-562 leukemia) of the same molecule?
The TGI was 11 µM.

And the TGI (RPMI-8226 leukemia)?
The TGI was 6.74 µM.

And the TGI (UO-31 renal)?
The TGI was 19.3 µM.

What about the TGI (IGROV1 ovarian) of the same molecule?
Its TGI is 18 µM.

What about the TGI (UACC-62 melanoma) of the same molecule?
The TGI was 14.4 µM.

What about the TGI (ACHN renal) of the same molecule?
The TGI was 10.2 µM.

And the TGI (EKVX NSCLC)?
The TGI was 17.1 µM.

And the TGI (U251 CNS)?
The TGI was 10.8 µM.

What about the TGI (A549 NSCLC) of the same molecule?
The TGI was 13.6 µM.

What about the TGI (SNB-75 CNS) of the same molecule?
The TGI was 11.7 µM.

And the TGI (HCC-2998 colon)?
The TGI was 15.7 µM.

And the TGI (SN12C renal)?
The TGI was 14.6 µM.

What about the TGI (OVCAR-3 ovarian) of the same molecule?
Its TGI is 9.43 µM.

And the TGI (M14 melanoma)?
Its TGI is 18.2 µM.

What about the TGI (SK-MEL-2 melanoma) of the same molecule?
The TGI was 10.3 µM.

What about the TGI (TK-10 renal) of the same molecule?
The TGI was 11.9 µM.

What about the TGI (NCI-H460 lung) of the same molecule?
The TGI was 9.01 µM.

What about the TGI (RXF-631 renal) of the same molecule?
The TGI was 19 µM.

And the TGI (NCI-H522 lung)?
The TGI was 7.39 µM.

What about the TGI (NCI-H23 lung) of the same molecule?
Its TGI is 8.6 µM.

What about the TGI (KM20L2 colon) of the same molecule?
The TGI was 11.5 µM.

And the TGI (SK-OV-3 ovarian)?
Its TGI is 5.58 µM.

What about the TGI (SF-539 CNS) of the same molecule?
The TGI was 6.68 µM.

What about the TGI (RXF 393 renal) of the same molecule?
The TGI was 6.51 µM.

And the TGI (SF-295 CNS)?
The TGI was 8.04 µM.

What about the TGI (HOP-18 NSCLC) of the same molecule?
The TGI was 9.34 µM.

What about the TGI (M19-MEL melanoma) of the same molecule?
Its TGI is 12.9 µM.

And the TGI (CAKI-1 renal)?
Its TGI is 8.45 µM.

What about the TGI (MOLT-4 leukemia) of the same molecule?
The TGI was 5.34 µM.

And the TGI (LXFL 529 NSCLC)?
The TGI was 11.7 µM.

And the TGI (OVCAR-4 ovarian)?
Its TGI is 18 µM.

And the TGI (KM12 colon)?
Its TGI is 14 µM.

What about the TGI (SK-MEL-28 melanoma) of the same molecule?
The TGI was 18.8 µM.

And the TGI (OVCAR-8 ovarian)?
Its TGI is 13.1 µM.

And the TGI (786-0 renal)?
Its TGI is 11.9 µM.

What about the TGI (SK-MEL-5 melanoma) of the same molecule?
The TGI was 3.6 µM.

And the TGI (XF 498 CNS)?
The TGI was 1.84 µM.

What about the TGI (SNB-19 CNS) of the same molecule?
Its TGI is 19.3 µM.

What about the TGI (DMS 273 small cell lung) of the same molecule?
Its TGI is 11.1 µM.

What about the TGI (NCI-H226 lung) of the same molecule?
The TGI was 10.2 µM.

What about the TGI (HT29 colon) of the same molecule?
The TGI was 9.37 µM.

What about the TGI (UACC-257 melanoma) of the same molecule?
Its TGI is 9.48 µM.

What about the TGI (DMS 114 small cell lung) of the same molecule?
The TGI was 8.95 µM.

And the TGI (HCT-116 colon)?
Its TGI is 12.8 µM.

And the TGI (OVCAR-5 ovarian)?
Its TGI is 23.3 µM.

And the TGI (COLO 205 colon)?
Its TGI is 13.5 µM.

With CSc1sc2ccccc2[s+]1 as the molecule, how does the TGI (CCRF-CEM leukemia) read?
Its TGI is > 100 µM.

And the TGI (LOX IMVI melanoma)?
Its TGI is > 100 µM.

And the TGI (DLD-1 colon)?
Its TGI is > 100 µM.

What about the TGI (MALME-3M melanoma) of the same molecule?
Its TGI is > 100 µM.

And the TGI (HCT-15 colon)?
Its TGI is > 100 µM.

What about the TGI (SW-620 colon) of the same molecule?
The TGI was > 100 µM.

And the TGI (SR leukemia)?
Its TGI is > 100 µM.

And the TGI (K-562 leukemia)?
Its TGI is > 100 µM.

And the TGI (RPMI-8226 leukemia)?
The TGI was > 100 µM.

What about the TGI (UO-31 renal) of the same molecule?
The TGI was > 100 µM.

What about the TGI (IGROV1 ovarian) of the same molecule?
Its TGI is > 100 µM.

What about the TGI (UACC-62 melanoma) of the same molecule?
Its TGI is > 100 µM.

What about the TGI (ACHN renal) of the same molecule?
Its TGI is > 100 µM.

What about the TGI (U251 CNS) of the same molecule?
The TGI was > 100 µM.

And the TGI (A549 NSCLC)?
Its TGI is > 100 µM.

And the TGI (SNB-75 CNS)?
The TGI was > 100 µM.

What about the TGI (HCC-2998 colon) of the same molecule?
The TGI was > 100 µM.

And the TGI (SN12C renal)?
The TGI was > 100 µM.

What about the TGI (A498 renal) of the same molecule?
Its TGI is > 100 µM.

And the TGI (M14 melanoma)?
The TGI was > 100 µM.

And the TGI (SK-MEL-2 melanoma)?
Its TGI is > 100 µM.

What about the TGI (TK-10 renal) of the same molecule?
Its TGI is > 100 µM.

What about the TGI (NCI-H460 lung) of the same molecule?
The TGI was > 100 µM.

And the TGI (RXF-631 renal)?
Its TGI is > 100 µM.

What about the TGI (NCI-H522 lung) of the same molecule?
The TGI was > 100 µM.

What about the TGI (SF-268 CNS) of the same molecule?
Its TGI is > 100 µM.

And the TGI (KM20L2 colon)?
The TGI was > 100 µM.

And the TGI (SK-OV-3 ovarian)?
Its TGI is > 100 µM.

And the TGI (SF-539 CNS)?
The TGI was > 100 µM.

What about the TGI (HOP-62 NSCLC) of the same molecule?
Its TGI is > 100 µM.

And the TGI (RXF 393 renal)?
The TGI was > 100 µM.

What about the TGI (SF-295 CNS) of the same molecule?
Its TGI is > 100 µM.

What about the TGI (HOP-18 NSCLC) of the same molecule?
Its TGI is > 100 µM.

What about the TGI (M19-MEL melanoma) of the same molecule?
The TGI was > 100 µM.

And the TGI (CAKI-1 renal)?
The TGI was > 100 µM.

What about the TGI (MOLT-4 leukemia) of the same molecule?
Its TGI is > 100 µM.

What about the TGI (LXFL 529 NSCLC) of the same molecule?
Its TGI is > 100 µM.

And the TGI (OVCAR-4 ovarian)?
The TGI was > 100 µM.

What about the TGI (HL-60(TB) leukemia) of the same molecule?
The TGI was > 100 µM.

What about the TGI (KM12 colon) of the same molecule?
Its TGI is > 100 µM.

And the TGI (OVCAR-8 ovarian)?
The TGI was > 100 µM.

What about the TGI (786-0 renal) of the same molecule?
The TGI was > 100 µM.

And the TGI (SK-MEL-5 melanoma)?
The TGI was > 100 µM.

And the TGI (SNB-19 CNS)?
Its TGI is > 100 µM.

And the TGI (DMS 273 small cell lung)?
The TGI was > 100 µM.

And the TGI (NCI-H226 lung)?
The TGI was > 100 µM.

And the TGI (HT29 colon)?
The TGI was > 100 µM.

What about the TGI (HOP-92 NSCLC) of the same molecule?
The TGI was > 100 µM.

And the TGI (UACC-257 melanoma)?
The TGI was > 100 µM.

What about the TGI (DMS 114 small cell lung) of the same molecule?
The TGI was > 100 µM.

And the TGI (HCT-116 colon)?
Its TGI is > 100 µM.

What about the TGI (OVCAR-5 ovarian) of the same molecule?
The TGI was > 100 µM.

And the TGI (COLO 205 colon)?
The TGI was > 100 µM.

Reference: PubChem BioAssay (NCI)
